The values that follow come from PMC7698965 (Cancers, 2020).

By IC50 is commonly meant the midpoint of a concentration-inhibition curve.

The subject of one data set is F98-cell. Also noted: method as in earlier work. As to conditions: post-neutron irradiation (2 Gy), cited from earlier work.
A further data set deals with C6. As to conditions: cited from earlier work; for IC50: 24 h incubation, SRB.
Another data set relates to HT-29. As to conditions: 24 h incubation, SRB; cited from earlier work.
The next data set relates to U87 MG. The conditions noted are these: 24 h incubation, SRB; cited from earlier work.
The test system of the next data set is S. typhimurium TA100. In words: Ames test. As to conditions: TA100, positive control NPD 2.0 mg/plate.
Another data set relates to S. typhimurium TA98. In words: Ames test. As to conditions: TA98, positive control NPD 20.0 mg/plate. (The Ames test uses bacterial strains that need an amino acid and regain growth without it when mutated back.)
Data set [1] has as its system U87 MG cells co-cultured with neonatal murine astrocytes. The data set can be described thus: Confocal microscopy of treated co-cultures (PKH26, DAPI). As to conditions: IC50,U87 MG doses, 24 h. Format: cell-based, human.
Procedure: Astrocytes (3 × 10^4 cells) were seeded into p35 dishes and were allowed to grow until 80% confluence. Next, 5 × 10^4 U87 MG stained cells with PKH26 dye were seeded onto a p35 dish containing a growing primary cell culture of astrocytes. […] A p60 dish treated with 1% DMSO served as a negative control. Treated cells were incubated for further 24 h. After that, treated co-cultures were fixed for 20 min at 4 °C with PFA and washed 2 times with PBS. Then, samples were permeabilized for 10 min at room temperature with 0.1% Triton X-100 in PBS, passed through washing PBS, blocked with 5% BSA:PBS for 1 h at room temperature, and incubated overnight in a solution of 1% BSA:PBS containing the primary antibody and DAPI at 4 °C. After washing, treated cells were incubated in 1:500-diluted secondary antibody during 2 h at room temperature. […] DAPI was used at a 1:1000 dilution. Antibodies were detected by confocal microscopy using a confocal Olympus FV300 microscope.
Another data set relates to astrocytes. In words: Cell cycle/DNA content by flow cytometry. As to conditions: 24 h at IC50 (1 8.0 μM, Sun 32 μM). Format: cell-based, mouse. (A flow cytometer gives signals particle by particle.)
The subject of another data set is AMPK. As to conditions: read-out: IC50,Sun,AMPK; cited from earlier work.
The subject of another data set is RSK1. The conditions noted are these: read-out: IC50,Sun,RSK1; cited from earlier work.
The test system of a further data set is U87 MG cells. In words: Cell cycle/DNA content by flow cytometry. In kind it is cell-based, human. The conditions noted are these: 24 h at IC50 (1 8.0 μM, Sun 32 μM).
In data set [2] the test system is U87 MG human glioblastoma. In words: In vivo anti-glioblastoma activity.
The mark [3] stands for this setting: 1 at 1 mg/kg/day, Tmz at 4 mg/kg/day, ip three times a week.

Where two headings read alike, the source gives them in different places.

Procedure for S. typhimurium TA100: (§1) Salmonella typhimurium TA98 and TA100 strains were incubated in agar minimum glucose milieu solution (Difco Bacto® agar) and aqueous glucose solution (40%). […] Briefly, 1 in phosphate buffer (0.1 M, pH 7.4) and DMSO (10%, v/v) at five doses, 0.450, 0.150, 0.050, 0.016, and 0.005 μg/plate, starting at the highest doses without toxic effects (0.450 μg/plate), were studied in triplicate. […] The revertants were counted and the studied system was considered mutagenic if the colonies number was at least doubled the natural revertants (negative control) for two or more consecutive doses.
Procedure for S. typhimurium TA98: as §1

For “10B-boronophenylalanine fructose [Compound 10BPA-fr]”, the “Surviving Fraction” value with F98-cell (0.1 ppm equivalents of 10B) is recorded as 89 ± 11%; in the data set with F98-cell (1.0 ppm equivalents of 10B) it was 71 ± 11%; in the data set on F98-cell (10.0 ppm equivalents of 10B), 92 ± 6%.
With `C#Cc1cccc(Nc2ncnc3cc(OCCOC)c(OCCOC)cc23)c1` [Erl, erlotinib], the IC50 with C6 is greater than 100 µM; with HT-29 it was greater than 100 µM; in the data set with U87 MG it was 63 ± 5 µM.
In the case of `CS(=O)(=O)CCNCc1ccc(-c2ccc3ncnc(Nc4ccc(OCc5cccc(F)c5)c(Cl)c4)c3c2)o1` [Lap, lapatinib], the IC50 with C6 was greater than 100 µM; in the data set with HT-29 it was 6.25 ± 0.05 µM; with U87 MG it was 54 ± 14 µM. For the same compound, the “percent of cells survival at 100 μM” value with C6 (C6, 100 μM) is recorded as 89 ± 5%. The “percentages of cell survival at 100 μM” value in the data set with C6 (C6, 100 μM) is on record as 89 ± 5%.
Take `Nc1ccc([N+](=O)[O-])cc1N` [Positive control, 4-Nitro-o-phenylendiamine]: the Number of revertants is 704 ± 6 with S. typhimurium TA100 and 295 ± 11 in the data set on S. typhimurium TA98.
As for `CCN(CC)CCNC(=O)c1c(C)[nH]c(/C=C2\C(=O)Nc3ccc(F)cc32)c1C` [Sun, sunitinib], the IC50 in the data set on C6 was 36 ± 10 µM; in the data set on HT-29 it was 6.25 ± 0.04 µM; with AMPK, 0.32 µM; with U87 MG it was 32 ± 4 µM; in the data set with RSK1, […]. Further, the DAPI nuclei staining entry in data set [1] is recorded as “chromatin condensation”. The “U87 MG population (PKH26 dye) compared to the control” value in [1] was “decrease of U87 MG population”. For the same compound, the “effect on cell cycle distribution” value with astrocytes was “increase in the percentage of both astrocytes and U87 MG cells in the sub-G1 phase”; with U87 MG cells, “increase in the percentage of both astrocytes and U87 MG cells in the sub-G1 phase”.
Regarding `Cn1nnc2c(C(N)=O)ncn2c1=O` [Tmz, temozolomide], in data set [2] (setting [3]), the mouse survival time is recorded as 27 days and the “time to mouse deaths” value worked out at 23 days. The median survival in data set [2] (Tmz 4 mg/kg/day ip three times a week) stood at 23 days.
